In patent US20140155429A1, “Treatment of Cognitive Disorders with Certain Alpha-7 Nicotinic Acid Receptor Agonists in Combination with Nicotine” (EnVivo Pharmaceuticals, Inc., priority 2011, published 2014):

Legend:
schizophrenia subjects = assay: Sensory electrophysiological responses (P50 gating, MMN, P300, N100) in schizophrenia subjects; format: in vivo, human; conditions: in combination with a tobacco-free nicotine dosage form, greater than compound alone, expected at a daily dose as low as 0.3 mg
Procedure: These effects are expected at a daily dose as low as 0.3 mg of (R)-7-chloro-N-(quinuclidin-3-yl)benzo[b]thiophene-2-carboxamide hydrochloride.
Impairment of the ability of central nervous system to inhibit irrelevant sensory information has long been used as a model for understanding the deficits of attention seen in schizophrenic subjects. Two approaches to the measurement of this ability have commonly been employed (see (Heinrichs, 2004; Potter et al., 2006; Turetsky et al., 2007; Umbricht and Krljes, 2005) for reviews and meta-analyses): (1) the sensory gating paradigm in which the presentation of one stimulus normally suppresses the response elicited by a stimulus which rapidly follows it. […] (2) the oddball or orienting paradigm in which a rare or unexpected event elicits a diminished response in schizophrenic subjects because attentional resources are inappropriately focused on less salient aspects of the environment.
Two responses are commonly used assess brain activity: (1) the auditory P50 response elicited by the second member of a pair of clicks; and (2) the mismatch negativity (MMN) or N2 response evoked by a rarely occurring pure tone of no instructed relevance to the subject. Abnormalities in both P50 gating and the MMN have been reported in schizophrenic subjects. […]

[1] = Memory improvement at a subclinical dose in combination with an acetylcholinesterase inhibitor; format: in vivo; conditions: in combination with an acetylcholinesterase inhibitor also at a subclinical dose
Procedure: Thus, a subject can experience a benefit (e.g., improved memory or cognition) from a combination of drugs each of which is administered at very low, side-effect reducing or side-effect avoiding dose. Moreover, the combination of drugs may provide a benefit for a wider range or subjects and/or over a longer period of treatment.

humans = assay: Procognitive effects in humans at low doses; format: in vivo, human; conditions: unexpectedly low doses
Excerpt: Thus, (R)-7-chloro-N-(quinuclidin-3-yl)benzo[b]thiophene-2-carboxamide and pharmaceutically acceptable salts thereof can be used at unexpectedly low doses improve cognition in individuals suffering from impaired cognition and in healthy individuals (i.e., individuals that are not suffering from an apparent cognitive deficit). For example, it can be used to improve cognition in subjects suffering from Alzheimer's disease, schizophrenia and other disorders such as other neurodegenerative diseases (e.g., Huntington's Disease or Parkinson's Disease) and attention deficit disorder. It can be used to treat certain disorders, e.g., Alzheimer's disease, schizophrenia (e.g., paranoid type, disorganized type, catatonic type, and undifferentiated type), schizophreniform disorder, schizoaffective disorder, delusional disorder, positive symptoms of schizophrenia, negative symptoms of schizophrenia at a daily dose of 3 mg, 2.70 mg, 2.50 mg, 2.25 mg, 2 mg, 1.75 mg, 1.50 mg, 1.25 mg, 1 mg, 0.7, 0.5, 0.3 mg or even 0.1 mg. The compound can be used to improve one or more aspects of cognition, e.g., one or more of: executive function, memory (e.g., working memory), social cognition, visual learning, verbal learning and speed of processing. […]

For `Cl.O=C(N[C@H]1CN2CCC1CC2)c1cc2cccc(Cl)c2s1` [(R)-7-chloro-N-(quinuclidin-3-yl)benzo[b]thiophene-2-carboxamide hydrochloride], the “sensory electrophysiological responses which correlate with improved cognitive and functional performance” value (schizophrenia subjects) was “can improve sensory electrophysiological responses”.
With `O=C(N[C@H]1CN2CCC1CC2)c1cc2cccc(Cl)c2s1` [(R)-7-chloro-N-(quinuclidin-3-yl)benzo[b]thiophene-2-carboxamide] the memory [1] was “memory can be improved” and the procognitive effects (humans) was “can have procognitive effects in humans at unexpectedly low doses”.
